What all share (type): biochemical
In experiment [1] the target is T1, HCV polymerase (Hepatitis C virus genotype 1a, UniProt P27958).
T1 construct: a particularly preferred RNA polymerases is the HCV NS5B polypeptide
As to the kind of experiment: HCV NS5B de novo initiation assay, ATP as initiation nucleotide. How it is done:
(§1) In vitro RNA-dependent RNA polymerase assay was used to evaluate activity of dinucleotide compounds as inhibitors of HCV polymerase. Examples of such compounds are illustrated below as compounds A and B in.
To further determine whether this inhibitory effect of HCV polymerase is specific for a particular initiation nucleotide, de novo initiation assay was performed using ATP as the initiation nucleotide (template RNA: 5′ AAAAAAAAGU 3′).

The target in experiment [2] is T1, HCV polymerase. Briefly: GpG dinucleotide-primed RNA synthesis. Conditions: dinucleotide primer GpG; RNA template 5′ AAAAAAAACC 3′; FIG. 4. From the text:
(§2) It was also observed that certain dinucleotide analogues were able to inhibit dinucleotide-primed RNA synthesis. […] Furthermore, this inhibitory activity is sequence specific. When a different dinucleotide primer (GpG) was used to prime RNA synthesis from the. […] These observations further support the model that base pairing capability between the dinucleotide compound and the template terminal bases is important for achieving sufficient inhibition of HCV polymerase.

The target of experiment [3] is T1, HCV polymerase. Briefly: GpC dinucleotide-primed RNA synthesis.
From the text: as §2

The target in the next experiment is T2, HCV NS5B (Hepatitis C virus genotype 1a, UniProt P27958).
T2 construct: a particularly preferred RNA polymerases is the HCV NS5B polypeptide
As to the kind of experiment: HCV NS5B de novo initiation assay, GTP as initiation nucleotide.
From the text: as §1

pIC50: −log10 of the molar value.

This is an account of results in patent US20060074035A1, “Dinucleotide inhibitors of de novo RNA polymerases for treatment or prevention of viral infections” (priority 2002, published 2006).

T1 sequence (P27958 2421-3011): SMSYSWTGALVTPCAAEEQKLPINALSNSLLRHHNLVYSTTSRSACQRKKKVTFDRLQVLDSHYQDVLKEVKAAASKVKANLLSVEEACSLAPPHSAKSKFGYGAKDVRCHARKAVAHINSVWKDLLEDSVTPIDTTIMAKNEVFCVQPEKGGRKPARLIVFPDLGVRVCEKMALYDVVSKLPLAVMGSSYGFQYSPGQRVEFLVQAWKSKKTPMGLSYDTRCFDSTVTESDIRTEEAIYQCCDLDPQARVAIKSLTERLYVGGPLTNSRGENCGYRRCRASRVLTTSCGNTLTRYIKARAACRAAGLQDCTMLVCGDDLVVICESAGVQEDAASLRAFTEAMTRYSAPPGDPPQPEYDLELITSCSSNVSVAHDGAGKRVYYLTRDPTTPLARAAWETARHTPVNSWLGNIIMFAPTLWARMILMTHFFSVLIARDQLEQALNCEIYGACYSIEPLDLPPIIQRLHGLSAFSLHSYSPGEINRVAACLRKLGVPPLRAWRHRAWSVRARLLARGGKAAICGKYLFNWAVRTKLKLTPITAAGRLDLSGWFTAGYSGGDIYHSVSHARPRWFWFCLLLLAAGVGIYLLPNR
T2 sequence (P27958 2421-3011): as above

One may read the pIC50 as the IC50 on a negative log10 scale, so that one unit is a factor of ten. High values mean a low IC50, low ones a high IC50. `COC1C(OP(O)(=S)OCC2CC(O)C(n3ccc(N)nc3=O)O2)C(COP(=O)(O)O)OC1n1cnc2c(=O)[nH]c(N)nc21` (stereo not shown) [compound A]: the values for the pIC50 at HCV polymerase [1], against HCV polymerase [3] and against HCV NS5B were approximately 4.05, 4.30 and 4.70, respectively. The “inhibition of polymerase activity (GpG-primed RNA synthesis)” value against HCV polymerase [2] is “lost the ability to inhibit the polymerase activity”.
Turning to `COC1[C@@H](COP(O)(=S)OC2[C@@H](COP(=O)(O)O)O[C@@H](n3cnc4c(=O)[nH]c(N)nc43)[C@H]2OC)O[C@@H](n2ccc(N)nc2=O)[C@H]1O` (stereo partly shown) [compound B], at HCV polymerase [2], the “inhibition of polymerase activity (GpG-primed RNA synthesis)” value was “lost the ability to inhibit the polymerase activity”. Moreover, the negative-log IC50 (pIC50) was approximately 4.10 against HCV polymerase [3] and 4.19 against HCV NS5B.
